Data taken from PMC12540872 (Nature Communications, 2025).

Target: MMOH (hydroxylase of soluble methane monooxygenase, sMMO)
Test: isothermal titration calorimetry
Type: binding, Methylosinus trichosporium
Details: enthalpically driven; surface site near K323 proposed

- Kd: 9.23 ± 1.3 µM
Compound: O=C1OC2(c3cc(I)c(O)c(I)c3Oc3c2cc(I)c(O)c3I)c2c(Cl)c(Cl)c(Cl)c(Cl)c21 [RB, rose bengal]
